Reference: the supplement of paper PMC10307832

Key:
Test in all cases: relative viability (nuclei count vs DMSO), 5 days (fraction); higher = more cells survive
VX-702 + Lapatinib = compound: NC(=O)c1ccc(N(C(N)=O)c2c(F)cccc2F)nc1-c1ccc(F)cc1F [VX-702] + CS(=O)(=O)CCNCc1ccc(-c2ccc3ncnc(Nc4ccc(OCc5cccc(F)c5)c(Cl)c4)c3c2)o1 [Lapatinib] (partner 2 µM)
In short: (§1)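 Lung cancer cell lines in 1536-well plates got either a single drug or a fixed anchor-drug dose together with five library-drug doses (not always all listed) in √10 steps, by pin tool, on the day after seeding. Nuclei were counted after 5 days, and relative viability is the treated-to-vehicle ratio of nuclei counts. Values are medians of duplicate plates.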

Dabrafenib + OSI-027 = compound: CC(C)(C)c1nc(-c2cccc(NS(=O)(=O)c3c(F)cccc3F)c2F)c(-c2ccnc(N)n2)s1 [Dabrafenib] + COc1cccc2cc(-c3nc([C@H]4CC[C@H](C(=O)O)CC4)n4ncnc(N)c34)[nH]c12 [OSI-027] (partner 0.5 µM)
In short: as §1

VX-702 + AZD7762 = compound: NC(=O)c1ccc(N(C(N)=O)c2c(F)cccc2F)nc1-c1ccc(F)cc1F [VX-702] + NC(=O)Nc1cc(-c2cccc(F)c2)sc1C(=O)N[C@H]1CCCNC1 [AZD7762] (partner 0.2 µM)
In short: as §1

VX-702 + Luminespib = compound: NC(=O)c1ccc(N(C(N)=O)c2c(F)cccc2F)nc1-c1ccc(F)cc1F [VX-702] + CCNC(=O)c1noc(-c2cc(C(C)C)c(O)cc2O)c1-c1ccc(CN2CCOCC2)cc1 [Luminespib] (partner 0.01 µM)
In short: as §1

Cell Line	relative viability (VX-702 + Lapatinib; first compound 0.02 µM)	relative viability (VX-702 + Lapatinib; first compound 0.2 µM)	relative viability (VX-702 + Lapatinib; first compound 0.6325 µM)	relative viability (VX-702 + Lapatinib; first compound 2 µM)	relative viability (Dabrafenib + OSI-027; first compound 0.003 µM)	relative viability (Dabrafenib + OSI-027; first compound 0.009487 µM)	relative viability (Dabrafenib + OSI-027; first compound 0.03 µM)	relative viability (Dabrafenib + OSI-027; first compound 0.09487 µM)	relative viability (Dabrafenib + OSI-027; first compound 0.3 µM)	relative viability (VX-702 + AZD7762; first compound 0.02 µM)	relative viability (VX-702 + AZD7762; first compound 0.2 µM)	relative viability (VX-702 + AZD7762; first compound 0.6325 µM)	relative viability (VX-702 + AZD7762; first compound 2 µM)	relative viability (VX-702 + Luminespib; first compound 0.02 µM)	relative viability (VX-702 + Luminespib; first compound 0.2 µM)	relative viability (VX-702 + Luminespib; first compound 0.6325 µM)	relative viability (VX-702 + Luminespib; first compound 2 µM)
HCC-366	1.03	1.15	1.23	0.791	0.109	0.988	0.501	0.773	1.08	0.381	0.218	0.372	0.123	–	–	–	–
HCC-827	0.181	0.191	0.19	0.152	0.586	0.955	0.744	–	0.657	0.2	0.226	0.215	0.137	0.449	0.638	0.504	0.273
IA-LM	0.789	0.738	0.77	0.761	–	–	–	–	–	–	–	–	–	–	–	–	–
LCLC-103H	–	–	–	–	0.4	0.502	0.46	0.51	0.461	0.76	0.816	0.825	0.873	0.975	0.888	1	0.986
NCI-H441	–	–	–	–	–	0.465	0.565	0.438	0.352	1.25	1.08	1.13	1.02	0.368	0.326	0.271	0.411
NCI-H520	0.809	1.05	0.798	1.05	0.272	0.348	0.188	0.324	0.278	–	–	–	–	0.189	0.245	0.221	0.239
NCI-H522	–	–	–	–	–	0.761	0.642	0.714	0.757	0.92	0.833	0.689	0.931	0.868	1.11	1.26	1.2
NCI-H661	0.498	0.445	0.505	0.624	0.785	0.709	0.676	0.682	0.675	–	–	–	–	0.905	0.919	0.995	1.06
NCI-H1299	1.02	0.965	1.03	1.06	–	–	–	–	–	–	–	–	–	–	–	–	–
NCI-H1563	0.939	0.991	1.02	0.691	0.732	0.742	0.675	0.791	0.676	–	–	–	–	0.528	0.506	0.509	0.479
NCI-H1648	–	–	–	–	0.225	0.249	0.298	0.244	0.209	0.709	0.583	0.634	0.563	–	–	–	–
NCI-H1650	0.808	0.469	0.818	0.907	0.318	0.899	0.374	0.803	0.948	–	–	–	–	0.19	0.193	0.216	0.226
NCI-H1703	1.2	0.931	0.647	1.21	–	–	–	–	–	0.123	0.117	–	0.115	–	–	–	–
NCI-H2009	1.14	0.931	1.01	1.08	0.423	0.617	0.321	0.249	0.251	–	–	–	–	1.13	1.07	1.19	1.3
NCI-H2023	0.729	0.504	0.712	0.977	0.325	0.455	0.385	0.355	0.395	–	–	–	–	0.692	0.829	0.826	0.974
NCI-H2228	0.851	1.04	1.04	1.33	–	0.668	0.554	0.52	0.607	–	–	–	–	0.101	0.144	0.145	0.124
NCI-H2342	–	–	–	–	0.532	0.548	0.504	0.715	0.737	0.607	0.644	0.6	0.552	0.66	0.848	0.72	0.821
SK-LU-1	1.09	0.885	0.887	1.29	–	0.366	0.217	0.285	0.227	–	–	–	–	0.211	0.177	0.2	0.207
SK-MES-1	0.449	0.407	0.458	0.43	0.254	0.663	0.552	0.495	0.23	–	–	–	–	0.839	0.711	0.673	0.822
SW 900	–	–	–	–	–	0.619	0.466	–	0.679	0.611	0.502	0.492	0.572	0.202	0.188	0.15	0.16
SW 1573	1.05	1.13	1.05	0.919	0.463	0.61	0.525	0.623	0.548	–	–	–	–	0.215	0.138	0.261	0.232
UMC-11	0.866	0.908	0.769	1.04	0.439	0.504	0.481	0.475	0.49	–	–	–	–	0.993	0.865	0.805	1.11
